Measurements from patent publication US9833497B2, “Human originated EGF domain proteins and use of the same” (CHENGDU SOURCEBIO LIMITED-LIABILITY COMPANY, priority 2013, dated 2017).

Assays:
Assay type in all cases: cell-based
E. coli DH5α = assay: Antibacterial activity: MIC and growth curve against E. coli DH5α in 96-well plate; settings: minimal inhibitory concentration against E. coli DH5α; 96-well plate, 5×10^5 CFU/mL, 37° C., judged after 8 h
Method in brief: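 Log-phase DH5α (OD600 about 0.5, 37° C, 185 rpm in LB) was pelleted, resuspended in fresh LB and seeded at 5×10^5 CFU/mL with recombinant protein at 50, 25 and 12.5 μg/mL (two-fold series), in triplicate. Plates were shaken at 175 rpm, 37° C, and OD600 was read every 30 min. MIC was the lowest concentration with no growth.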

E. coli BL21 = assay: MIC against Gram-negative bacteria: E. coli BL21; settings: 5×10^5 CFU/mL; for MIC (μg/mL) E. coli BL21: 10 h cultivation at 37° C.; for MIC E. coli BL21: 96-well plate, 37° C., 10 h
Method in brief: (§1)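 Two-fold serial dilutions of each purified human EGF domain protein, three replicate wells per level, were combined with bacteria at a final 5×10^5 CFU/mL in LB. Cultures were shaken at 175 rpm, 37° C. The MIC was taken as the minimum concentration preventing growth.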

Pseudomonas aeruginosa = assay: MIC against Gram-negative bacteria: Pseudomonas aeruginosa; settings: 5×10^5 CFU/mL; for MIC (μg/mL) P. aeruginosa: 10 h cultivation at 37° C.; for MIC P. aeruginosa: 96-well plate, 37° C., 10 h
Method in brief: as §1

Klebsiella pneumonia = assay: MIC against Gram-negative bacteria: Klebsiella pneumonia; settings: 5×10^5 CFU/mL; for MIC (μg/mL) K. pneumonia: 10 h cultivation at 37° C.; for MIC K. pneumonia: 96-well plate, 37° C., 10 h
Method in brief: as §1

Enterobacter cloacae = assay: MIC against Gram-negative bacteria: Enterobacter cloacae; settings: 5×10^5 CFU/mL; for MIC (μg/mL) E. cloacae: 10 h cultivation at 37° C.; for MIC E. cloacae: 96-well plate, 37° C., 10 h
Method in brief: as §1

Aeromonas hydrophila = assay: MIC against Gram-negative bacteria: Aeromonas hydrophila; settings: 5×10^5 CFU/mL; for MIC (μg/mL) A. hydrophila: 10 h cultivation at 37° C.; for MIC A. hydrophila: 96-well plate, 37° C., 10 h
Method in brief: as §1

Citrobacter diversus = assay: MIC against Gram-negative bacteria: Citrobacter diversus; settings: 5×10^5 CFU/mL; for MIC (μg/mL) C. diversus: 10 h cultivation at 37° C.; for MIC C. diversus: 96-well plate, 37° C., 10 h
Method in brief: as §1

Moraxella catarrhalis = assay: MIC against Gram-negative bacteria: Moraxella catarrhalis; settings: 5×10^5 CFU/mL; for MIC (μg/mL) M. catarrhalis: 10 h cultivation at 37° C.; for MIC M. catarrhalis: 96-well plate, 37° C., 10 h
Method in brief: as §1

Proteus mirabilis = assay: MIC against Gram-negative bacteria: Proteus mirabilis; settings: 5×10^5 CFU/mL; for MIC (μg/mL) P. mirabilis: 10 h cultivation at 37° C.; for MIC P. mirabilis: 96-well plate, 37° C., 10 h
Method in brief: as §1

Proteus vulgaris = assay: MIC against Gram-negative bacteria: Proteus vulgaris; settings: 5×10^5 CFU/mL; for MIC (μg/mL) P. vulgaris: 10 h cultivation at 37° C.; for MIC P. vulgaris: 96-well plate, 37° C., 10 h
Method in brief: as §1

Serratia marcescens = assay: MIC against Gram-negative bacteria: Serratia marcescens; settings: 5×10^5 CFU/mL; for MIC (μg/mL) S. marcescens: 10 h cultivation at 37° C.; for MIC S. marcescens: 96-well plate, 37° C., 10 h
Method in brief: as §1

| Substance | MIC (E. coli DH5α) [µg/mL] | MIC (μg/mL) E. coli BL21 (E. coli BL21) [µg/mL] | MIC (μg/mL) P. aeruginosa (Pseudomonas aeruginosa) [µg/mL] | MIC (μg/mL) K. pneumonia (Klebsiella pneumonia) [µg/mL] | MIC (μg/mL) E. cloacae (Enterobacter cloacae) [µg/mL] | MIC (μg/mL) A. hydrophila (Aeromonas hydrophila) [µg/mL] | MIC (μg/mL) C. diversus (Citrobacter diversus) [µg/mL] | MIC (μg/mL) M. catarrhalis (Moraxella catarrhalis) [µg/mL] | MIC (μg/mL) P. mirabilis (Proteus mirabilis) [µg/mL] | MIC (μg/mL) P. vulgaris (Proteus vulgaris) [µg/mL] | MIC (μg/mL) S. marcescens (Serratia marcescens) [µg/mL] | MIC E. coli BL21 (E. coli BL21) [µg/mL] | MIC P. aeruginosa (Pseudomonas aeruginosa) [µg/mL] | MIC K. pneumonia (Klebsiella pneumonia) [µg/mL] | MIC E. cloacae (Enterobacter cloacae) [µg/mL] | MIC A. hydrophila (Aeromonas hydrophila) [µg/mL] | MIC C. diversus (Citrobacter diversus) [µg/mL] | MIC M. catarrhalis (Moraxella catarrhalis) [µg/mL] | MIC P. mirabilis (Proteus mirabilis) [µg/mL] | MIC P. vulgaris (Proteus vulgaris) [µg/mL] | other results |
| --- | --- | --- | --- | --- | --- | --- | --- | --- | --- | --- | --- | --- | --- | --- | --- | --- | --- | --- | --- | --- | --- |
| PRT777 (SGDRCQLQTRCQNGGQWDGLKCQCPSTFYGSSCE; listed as Homo sapiens) | 50 | 12.5 | 50 | 12.5 | 12.5 | 50 | 50 | 12.5 | 50 | 25 | 12.5 | – | – | – | – | – | – | – | – | – | – |
| PRT734 (NNNPCLENNGGCSHLCFALPGLHTPKCDCAFGTLQSDGKNCA; listed as Homo sapiens) | 50 | – | – | – | – | – | – | – | – | – | – | 12.5 | 25 | 50 | 12.5 | 50 | 25 | 12.5 | 25 | 25 | MIC S. marcescens (Serratia marcescens): 50 µg/mL |
| PRT624 (CRCSPLGAASAQCHENGTCVCRPGFEGYKCDRCHDNFFLTADGTHCQQC; listed as Homo sapiens) | 25 | – | – | – | – | – | – | – | – | – | – | 100 | 25 | 50 | 25 | 12.5 | 25 | 12.5 | 25 | 12.5 | MIC S. marcescens (Serratia marcescens): 25 µg/mL |
| PRT189 (SIDACASSPCFNRATCYTDLSTDTFVCNCPYGFVGSRCE; listed as Homo sapiens) | 25 | 12.5 | 25 | 12.5 | 25 | 50 | 25 | 12.5 | 25 | 50 | 25 | – | – | – | – | – | – | – | – | – | – |
| PRT839 (DVDECRLGLARCHPRATCLNTPLSYECHCQRGYQGDGISHCN; listed as Homo sapiens) | 12.5 | 25 | 12.5 | 12.5 | 12.5 | 12.5 | 25 | 50 | 25 | 12.5 | 50 | – | – | – | – | – | – | – | – | – | – |
